{
  "source": "paper PMC3014826",
  "about": "(The Biochemical journal, 2009)",
  "origin": "cited, not measured here",
  "tested_on": "A6 TCR",
  "settings": "ITC, 37 °C; ref Armstrong et al. (2008)",
  "data": [
    {"substance": "HTLV-1 Tax11-19 peptide [Native Tax]", "values": [
      {"measurement": "ΔG°", "result": "-35.9 ± 0.17", "unit": "kJ/mol"},
      {"measurement": "ΔH°", "result": "-29.7 ± 0.42", "unit": "kJ/mol"},
      {"measurement": "ΔS°", "result": "4.7 ± 0.4", "unit": "cal/mol/K"}
    ]}
  ]
}
